Here are results for one compound from US5214034A, “Catechol derivatives, and preventive and remedial preparations for regressive disorders in the central nervous system containing the same” (priority 1986, dated 1993).

Experiment [1] concerns rats injected with kainic acid at basal forebrain / sham-operated rats. The experiment can be described thus: Retention of passive avoidance learning: prevention of retention deficits. The experiment is classed as in vivo, rat (male Sprague-Dawley). As to conditions: Table 8, i.p. 5 mg/kg on days 1, 4, 7. The protocol:
(§1) Effects of the derivative on the behavioral parameters of rats injected with kainic acid at basal forebrain were characterized with regard to both prevention against deficits in retention of passive avoidance learning and promotion of recovery from damaged state by repeated learning.
(§2) Male Sprague-Dawley rats (9-10 weeks of age, 200-250 g of weight) were anesthetized with Nembutal (50 mg/kg, i.p.) and placed in a stereotaxic apparatus. Bilateral lesions of the ventral globus pallidus were made by direct stereotaxic application (0.7 mm posterior to bregma, 2.7 mm lateral to the midline, and 7.0 mm ventral to the brain surface) of 0.25 μg of kainic acid in 1 μl of PBS (pH 7.4) to prepare disordered models. Controls were sham-operated rats injected with PBS in place of kainic acid solution.
(§3) Passive avoidance procedures were performed by using a two chambered step-through passive avoidance apparatus with a guillotine door. A 3 mA scrambled shock was delivered to the dark floor grids for 3 seconds as a punishment. Habituation trial was conducted prior to the acquisition trial. Each rats were placed in the illuminated chamber and the guillotine door was raised after 10 seconds. As soon as the rats entered into the dark chamber, the door was lowered. The rats were removed after 10 seconds and returned to their home cages. […] The acquisition trial was performed similarly to the habituation trial. In the former case, a rat was placed in the illuminated room and the door was opened after 10 seconds. The door was shut immediately after the rat entered into the dark room, a scrambled foot shock was applied, and then the animal was removed. The latency to enter the dark chamber after opening the door was recorded for 300 seconds in the retention of passive avoidance. The latency exceeding 300 seconds was calculated as 300 seconds.
The preventive effects on deficits in retention were estimated by using 60 rats. Thirty rats were injected with kainic acid and other 30 rats were sham-operated with PBS.
Each groups of animals were equally divided into three groups which were received intraperitoneally 5 mg/kg of the derivative (A) (R=2H, R1 =H, R2 =n-propyl, that is, 4-n-propylcatechol), derivative A (R=--CO--, R1 =H, R2 =n-propyl) and saline respectively as a saline solution on one, four and seven days after the operation.
Table 8 illustrates the results obtained by conducting the acquisition trial 10 days after the operation and the retention test after 24 hours.

Experiment [2] deals with production and secretion of NGF in brain astroglial cells. Nature of the experiment: Promoting activity for the production and secretion of NGF in brain astroglial cells of mouse (ELISA). As to conditions: 24 h. As to the method:
The experiment was performed by inducing the astroglial cells from mouse forebrain to culture system according to the procedures of S. Furukawa et al. which is described in Biochem. Biophys. Res. Commun., 136, 57-63 (1986).
That is, forebrains of 8-day old mice were dissected out and cut into small pieces. […] Cells and cell clamps were recovered by centrifugation at 200 xg for 5 minutes. They were cultured in Dulbecco modified Eagle's medium (a product of Gibco Co. hereinafter abbreviated as DMEM) containing 10% of fetal calf serum, […] of penicillin, and 50 μg/ml of streptomycin, for 10 to 14 days with medium changes every 3 days. After completing confluency, the cells were dissociated by trypsin treatment and recultured in new culture flasks. This procedure was repeated further twice and more. […] The cells will hereinafter be referred to as astroglial cells.
Astroglial cells were innoculated in 24-well plates having a well surface area of 2.1 cm^2 (a product of Falcon Co.) at a cell density of about 3×10^4 cells/well and cultured for 3 days in DMEM . medium supplemented with 10% of fetal calf serum. After completing confluency about 10^7 cells/well), the medium was changed to DMEM medium (0.5 ml/well) supplemented with 0.5% of bovine serum albumin ((fraction V) and cultured for 3 days. The culture was further continued with medium changes every 3 days. After cells were practically synchronized in the quiscent stage, the medium was changed to 0.5 ml of the medium supplemented with 0.5% of bovine serum albumin and containing a prescribed concentration of test sample as illustrated in Tables. […] Data are expressed as fold increase in NGF content over that in the absence of the test sample. […] Data are presented as means ±SE of four determinations.
(In general: An ELISA detects its analyte on a solid surface through an enzyme-linked reagent.)

Experiment [3] deals with rats injected with kainic acid at basal forebrain. Nature of the experiment: Promotion of recovery from retention deficits by repeated learning (passive avoidance). The experiment is classed as in vivo, rat (male Sprague-Dawley). Also noted: key: latency in seconds to enter dark chamber, capped at 300 s. As to conditions: Table 9, i.p. 5 mg/kg before each trial. The protocol:
as §1, §2, §3
The promoting effects on the recovery by repeated training from the damaged state of retention were acessed by using 30 rats injected with kainic acid. Rats were subjected to the acquisition trial 10 days after the operation. The rats were equally divided into 3 groups after 24 hours and injected intrapenitroneally with 5 mg/kg of 4-n-propylcatechol and the derivative (A) (R=--CO--, R=H, R2 =n-propyl) respectively as a saline solution. The remaining 10 rats were intraperitoneally injected with saline alone. The first retention trial was carried out two days after the injection. Rats which entered into the dark chamber within 30 seconds were punished by the scrambled foot shock as a training. On the next day, all animals were administered again the same amount of test derivative or saline. These animals were subjected to the second retention trial two days after the second injection.
Retention trials, punishments and additional administrations were repeated as mentioned above four times in all.

Experiment [4] deals with production and secretion of NGF on L-M cells. The experiment can be described thus: Promoting action for the production and secretion of NGF on L-M cells of mouse (ELISA). The experiment is classed as cell-based. As to conditions: Mus musculus, 24 h, read-out: Ratio of NGF increase. From the text:
Catecholamines have also been found in a relatively high concentration to accelerate these functions without being mediated by adrenergic receptors [Y. Furukawa et al., J. Biol. Chem., 261, 6039-6047 (1986)].
The compound having a high activity in Table 1, that is, the catechol derivative having a n-alkyl group in the 3 or 4 position on the ring has been observed an acute cell toxicity in higher concentrations. The toxicity was considered the result of two hydroxyl groups in the catechol structure. Then the hydroxyl groups were esterified or etherified and the resulting derivative was examined the effect on the activity for the production and secretion of NGF.
The experiment was performed according to the procedures of Y. Furukawa et al. which is described in J. Bis Chem., 261, 6039-6047 (1986).
The medium was cultured for 3 days at a temperature of 37° C. After completing the confluency (about 10^6 cells/well), the medium was changed to Medium 199 (0.5 ml/well) containing 0.5% bovine serum albumin (Fraction V, a product of Armour Co.). The sample of the derivative is contained in the medium at a prescribed concentration as illustrated in the Tables.

With `CCCc1ccc(O)c(O)c1` [R = Two H, R1 = H, R2 = n-Propyl, 4-n-propylcatechol], the entries for the “Animals with more than 150 sec of latency” value in experiment [1] (rats operated with kainic acid) and in experiment [1] (sham-operated rats) were 3 in 10 animals and 10 in 10 animals, respectively. Also, the Mean latency in experiment [1] (rats operated with kainic acid, *P < 0.01 vs control) stood at 114 ± 44 s; in experiment [1] (sham-operated rats), 286 ± 9 s. Besides, the fold induction at 100 µM in experiment [2] (read-out: Ratio of NGF increase, Table 3, 0.10 mM, 24 hours, mean ± SE of four determinations) turned out to be 68.4 ± 3.24; in experiment [4], 17.1 ± 2.7. The fold induction at 250 µM in experiment [2] (read-out: Ratio of NGF increase, Table 3, 0.25 mM, 24 hours, mean ± SE of four determinations) was 100 ± 11.2. Moreover, in experiment [3], the “Mean latency, 1st retention trial” value is recorded as 47 ± 16. In addition, in experiment [3] (**P < 0.01), the “Mean latency, 4th retention trial” value came out at 272 ± 14. In addition, in experiment [3] (*P < 0.05), the “Mean latency, 2nd retention trial” value was 147 ± 29. Further, the “Mean latency, 3rd retention trial” value in experiment [3] (*P < 0.05) was 201 ± 23. Besides, the fold induction at 30 µM in experiment [4] came to 10.1 ± 1.14.
